Data from patent US20260062443A1 (ALEXION PHARMACEUTICALS, INC., priority 2022, published 2026).

Molecular target: T1, Human complement C1s enzyme (Homo sapiens, UniProt P09871)
T1 sequence (P09871 438-688 limits assumed): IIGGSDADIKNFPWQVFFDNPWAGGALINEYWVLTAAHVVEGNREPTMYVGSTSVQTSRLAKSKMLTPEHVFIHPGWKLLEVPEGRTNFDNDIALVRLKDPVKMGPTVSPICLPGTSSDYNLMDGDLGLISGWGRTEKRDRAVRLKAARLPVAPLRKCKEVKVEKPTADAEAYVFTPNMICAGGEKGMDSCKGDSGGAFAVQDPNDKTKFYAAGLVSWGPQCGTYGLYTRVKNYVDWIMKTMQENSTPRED
T1 sequence (P09871 16-437 partner limits assumed): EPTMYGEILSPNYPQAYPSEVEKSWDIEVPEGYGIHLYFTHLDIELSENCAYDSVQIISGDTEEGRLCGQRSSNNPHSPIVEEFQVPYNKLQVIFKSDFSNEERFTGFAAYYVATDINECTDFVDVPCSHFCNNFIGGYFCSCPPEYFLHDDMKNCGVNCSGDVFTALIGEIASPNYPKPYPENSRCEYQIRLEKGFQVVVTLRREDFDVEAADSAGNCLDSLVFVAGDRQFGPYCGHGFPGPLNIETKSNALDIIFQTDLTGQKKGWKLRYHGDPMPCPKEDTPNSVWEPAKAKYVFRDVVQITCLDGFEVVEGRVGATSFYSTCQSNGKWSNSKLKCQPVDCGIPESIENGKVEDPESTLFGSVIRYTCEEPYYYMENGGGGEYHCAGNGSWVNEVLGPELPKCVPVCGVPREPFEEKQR
Experiment: Human C1s enzyme assay
Format: biochemical
Details: human complement C1s enzyme 1.16 nM, substrate Z-L-Lys-SBzl 100 μM, 5 min preincubation; read-out: IC50 (Stars), C1s Inhibiting Activity
Method in brief: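 Serum-purified human C1s (1.16 nM final) preincubated 5 min at room temperature with compound in 50 mM Tris, 1 M NaCl, pH 7.5. Z-L-Lys-SBzl and DTNB added at 100 μM each; A405 followed every 30 s for 30 min, and IC50 obtained by nonlinear regression of reaction rates.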

SMILES	IC50 [nM]
O=C(NCC(=O)N1CC2(C[C@H]1C(=O)NCc1nc3cnccc3[nH]1)OCCO2)c1ccc2c(c1)Oc1ccccc1S2 [Compound 49, (S)-N-((1H-imidazo[4,5-c]pyridin-2-yl)methyl)-7-((phenoxathiine-3-carbonyl)glycyl)-1,4-dioxa-7-azaspiro[4.4]nonane-8-carboxamide]	> 1000
C[C@@H](NC(=O)[C@@H]1C[C@@H](C(F)(F)F)CN1C(=O)CNC(=O)c1ccc2c(c1)Oc1ccccc1S2)c1cc2cnccc2[nH]1 [Compound 176, (2S,4R)-N-((R)-1-(1H-pyrrolo[3,2-c]pyridin-2-yl)ethyl)-1-((phenoxathiine-3-carbonyl)glycyl)-4-(trifluoromethyl)pyrrolidine-2-carboxamide]	< 100
O=C(NCC(=O)N1C[C@H](OC(F)F)C[C@H]1C(=O)N[C@@H](CO)c1cc2cnccc2[nH]1)c1ccc2c(c1)-c1ccccc1C2(F)F [Compound 128, (2S,4R)-1-((9,9-difluoro-9H-fluorene-3-carbonyl)glycyl)-4-(difluoromethoxy)-N-((R)-2-hydroxy-1-(1H-pyrrolo[3,2-c]pyridin-2-yl)ethyl) pyrrolidine-2-carboxamide]	> 1000
C[C@@H](NC(=O)[C@@H]1CC2(CN1C(=O)CNC(=O)c1ccc(-c3ccccc3)cc1)OCCO2)c1cc2cnccc2[nH]1 [Compound 79, (S)-N-((R)-1-(1H-pyrrolo[3,2-c]pyridin-2-yl)ethyl)-7-(([1,1′-biphenyl]-4-carbonyl)glycyl)-1,4-dioxa-7-azaspiro[4.4]nonane-8-carboxamide]	100 to 1000
C[C@@H](NC(=O)[C@@H]1CC2(CN1C(=O)CNC(=O)c1ccc(-c3ccccc3)cn1)OCCO2)c1cc2cnccc2[nH]1 [Compound 114, (S)-N-((R)-1-(1H-pyrrolo[3,2-c]pyridin-2-yl)ethyl)-7-((5-phenylpicolinoyl)glycyl)-1,4-dioxa-7-azaspiro[4.4]nonane-8-carboxamide]	100 to 1000
COC[C@@]1(F)C[C@@H](C(=O)N[C@H](C)c2cc3cnccc3[nH]2)N(C(=O)CNC(=O)c2ccc(Oc3ccccc3)cc2)C1 [Compound 40, (2S,4R)-N-((R)-1-(1H-pyrrolo[3,2-c]pyridin-2-yl)ethyl)-4-fluoro-4-(methoxymethyl)-1-((4-phenoxybenzoyl)glycyl) pyrrolidine-2-carboxamide]	100 to 1000
O=C(NCC(=O)N1CC2(C[C@H]1C(=O)NCc1cc3cncc(Cl)c3[nH]1)OCCO2)c1ccc2c(c1)Oc1ccccc1S2 [Compound 53, (S)-N-((7-chloro-1H-pyrrolo[3,2-c]pyridin-2-yl)methyl)-7-((phenoxathiine-3-carbonyl)glycyl)-1,4-dioxa-7-azaspiro[4.4]nonane-8-carboxamide]	> 1000
C[C@@]12C[C@@H]1N(C(=O)CNC(=O)CCCOc1ccccc1)[C@H](C(=O)NCc1ccc3c(c1)CNC3)C2 [Compound 67, (1S,3S,5S)-N-(isoindolin-5-ylmethyl)-5-methyl-2-((4-phenoxybutanoyl)glycyl)-2-azabicyclo[3.1.0]hexane-3-carboxamide]	100 to 1000
Cc1ccc(-c2cnc(C(=O)NCC(=O)N3CC4(C[C@H]3C(=O)NCc3cc5cnccc5[nH]3)OCCO4)c(F)c2)cc1 [Compound 108, (S)-N-((1H-pyrrolo[3,2-c]pyridin-2-yl)methyl)-7-((3-fluoro-5-(p-tolyl)picolinoyl)glycyl)-1,4-dioxa-7-azaspiro[4.4]nonane-8-carboxamide]	100 to 1000
C[C@H](NC(=O)[C@@H]1C[C@]2(C)C[C@@H]2N1C(=O)CNC(=O)CCCOc1ccccc1)c1cc2cnccc2[nH]1 [Compound 57, (1S,3S,5S)-N-((S)-1-(1H-pyrrolo[3,2-c]pyridin-2-yl)ethyl)-5-methyl-2-((4-phenoxybutanoyl)glycyl)-2-azabicyclo[3.1.0]hexane-3-carboxamide]	> 1000
C[C@H]1C[C@@H](C(=O)N[C@H](C)c2cc3cnccc3[nH]2)N(C(=O)CNC(=O)c2ccc3c(c2)Oc2ccccc2S3)C1 [Compound 165, (2S,4S)-N-((R)-1-(1H-pyrrolo[3,2-c]pyridin-2-yl)ethyl)-4-methyl-1-((phenoxathiine-3-carbonyl)glycyl)pyrrolidine-2-carboxamide]	< 100
O=C(NCC(=O)N1CC2(C[C@H]1C(=O)NCc1nc3cnccc3s1)OCCO2)c1ccc2c(c1)Oc1ccccc1S2 [Compound 41, (S)-7-((phenoxathiine-3-carbonyl)glycyl)-N-(thiazolo[4,5-c]pyridin-2-ylmethyl)-1,4-dioxa-7-azaspiro[4.4]nonane-8-carboxamide]	> 1000
Nc1nccc2ccc(CNC(=O)[C@@H]3CC4(CN3C(=O)CNC(=O)c3ccc5c(c3)Oc3ccccc3S5)OCCO4)cc12 [Compound 51, (S)-N-((1-aminoisoquinolin-7-yl)methyl)-7-((phenoxathiine-3-carbonyl)glycyl)-1,4-dioxa-7-azaspiro[4.4]nonane-8-carboxamide]	> 1000
C[C@@]12C[C@@H]1N(C(=O)CNC(=O)c1cccc(Oc3ccccc3)c1)[C@H](C(=O)NCc1cc3cnccc3[nH]1)C2 [Compound 152, (1S,3S,5S)-N-((1H-pyrrolo[3,2-c]pyridin-2-yl)methyl)-5-methyl-2-((3-phenoxybenzoyl)glycyl)-2-azabicyclo[3.1.0]hexane-3-carboxamide]	< 100
O=C(NCC(=O)N1C[C@@](F)(CF)C[C@H]1C(=O)NCc1cc2cnccc2[nH]1)c1ccc2oc3ccccc3c2c1 [Compound 187, (2S,4R)-N-((1H-pyrrolo[3,2-c]pyridin-2-yl)methyl)-1-((dibenzo[b,d]furan-2-carbonyl)glycyl)-4-fluoro-4-(fluoromethyl)pyrrolidine-2-carboxamide]	< 100
C[C@@H](NC(=O)[C@@H]1C[C@H](C2OCCCO2)CN1C(=O)CNC(=O)c1ccc2c(c1)Oc1ccccc1S2)c1cc2cnccc2[nH]1 [Compound 146, (2S,4S)-N-((R)-1-(1H-pyrrolo[3,2-c]pyridin-2-yl)ethyl)-4-(1,3-dioxan-2-yl)-1-((phenoxathiine-3-carbonyl)glycyl)pyrrolidine-2-carboxamide]	< 100

Now from value to compound:

IC50 [nM]	SMILES
< 100	C[C@@]12C[C@@H]1N(C(=O)CNC(=O)c1cccc(Oc3ccccc3)c1)[C@H](C(=O)NCc1cc3cnccc3s1)C2 [Compound 246, (1S,3S,5S)-5-methyl-2-((3-phenoxybenzoyl)glycyl)-N-(thieno[3,2-c]pyridin-2-ylmethyl)-2-azabicyclo[3.1.0]hexane-3-carboxamide]
< 100	Cc1ccc2c(c1)oc1ccc(C(=O)NCC(=O)N3C[C@H](OC(F)F)C[C@H]3C(=O)NCc3cc4cnccc4[nH]3)cc12 [Compound 332, (2S,4R)-N-((1H-pyrrolo[3,2-c]pyridin-2-yl)methyl)-4-(difluoromethoxy)-1-((7-methyldibenzo[b,d]furan-2-carbonyl)glycyl)pyrrolidine-2-carboxamide]
< 100	Cc1ccc(Oc2cccc(C(=O)NCC(=O)N3C[C@H](OC(F)F)C[C@H]3C(=O)NCc3cc4cnccc4[nH]3)c2)s1 [Compound 366, (2S,4R)-N-((1H-pyrrolo[3,2-c]pyridin-2-yl)methyl)-4-(difluoromethoxy)-1-((3-((5-methylthiophen-2-yl)oxy)benzoyl)glycyl)pyrrolidine-2-carboxamide]
> 1000	O=C(NCC(=O)N1C[C@H](OC(F)F)C[C@H]1C(=O)NCc1ccc2nccn2c1)c1ccc2c(c1)Oc1ccccc1S2 [Compound 233, (2S,4R)-4-(difluoromethoxy)-N-(imidazo[1,2-a]pyridin-6-ylmethyl)-1-((phenoxathiine-3-carbonyl)glycyl)pyrrolidine-2-carboxamide]
< 100	Cc1cc(Oc2ccc(C)cc2F)cc(C(=O)NCC(=O)N2C[C@H](OC(F)F)C[C@H]2C(=O)NCc2cc3cnccc3[nH]2)c1 [Compound 328, (2S,4R)-N-((1H-pyrrolo[3,2-c]pyridin-2-yl)methyl)-4-(difluoromethoxy)-1-((3-(2-fluoro-4-methylphenoxy)-5-methylbenzoyl)glycyl)pyrrolidine-2-carboxamide]
> 1000	O=C(NCC(=O)N1C[C@H](OC(F)F)C[C@H]1C(=O)NCc1ccc2c(n1)CCN2)c1ccc2c(c1)Oc1ccccc1S2 [Compound 264, (2S,4R)-4-(difluoromethoxy)-N-((2,3-dihydro-1H-pyrrolo[3,2-b]pyridin-5-yl)methyl)-1-((phenoxathiine-3-carbonyl)glycyl)pyrrolidine-2-carboxamide]
< 100	CCc1ccc(Oc2cccc(C(=O)NCC(=O)N3C[C@H](OC(F)F)C[C@H]3C(=O)NCc3cc4cnccc4[nH]3)c2)cc1 [Compound 293, (2S,4R)-N-((1H-pyrrolo[3,2-c]pyridin-2-yl)methyl)-4-(difluoromethoxy)-1-((3-(4-ethylphenoxy)benzoyl)glycyl) pyrrolidine-2-carboxamide]
